Tests used:
[1] = State of peptide solution (solution or gel) on pH adjustment with NaHCO3; assay type: physicochemical; conditions: for State of Peptide Under Different pH Conditions: gel: pH at which the peptide is a gel; for State of Peptide Under Different pH Conditions: solution: pH at which the peptide is a solution; for pH needed to stay in solution: typical value, concentration not stated (background, inventor's study)
Procedure: (§1) Unless otherwise specified, the solutions in this example refer to aqueous solutions prepared using purified water or sterile water as the solvent. Based on the AC-PRVDVRVDP-NH2 provided previously, the peptides AC-KLNLKLNLNL-NH2, AC-PRVDVRVKVRVDP-NH2, and AC-RADMSRADMS-NH2 were screened. The above-mentioned peptides were formulated into a 1 mL 2.5% w/v solution, to which 100 µL of 10-fold concentration PBS buffer was added and thoroughly mixed to achieve a final solution of approximately 1-fold PBS. […] Based on this, a similar sequence with liquid-solid phase transition capability, AC-PRVDVRVRVRVDP-NH2 (PRRVDP13), was further designed. At a concentration of 1% w/v, the pH of the two peptide solutions could be pre-adjusted to a certain level using a dropwise addition of 1% w/v NaHCO3 and shaking, without the peptide solution turning into a gel for several hours. However, at a concentration of 2% w/v, when the pH increased to around 3 using a dropwise addition of 1% w/v NaHCO3 and shaking, the peptide solution quickly turned into a gel. The classical sequence RADA16 and the original sequence PRVDP9 needed to be maintained under acidic conditions even at a lower concentration of 1% w/v to keep them in solution state. Otherwise, the solution would turn into a gel, and the color would turn white as the pH increased.

[2] = Neutralisation of peptide solution by mixing with DMEM medium, pH measured; assay type: physicochemical; conditions: for neutralization of acidity by mixing with DMEM medium: 2.5% w/v peptide solution
Procedure: As mentioned above, peptide solutions with relatively high concentrations (over 2% w/v) cannot be pre-adjusted to neutral pH before mixing with the cell suspension, and the acidity may be harmful to the cells. […] Therefore, despite the acidic nature of the 2.5% concentration solution, PRRVDP13 may still be used as a cell culture scaffold. The experimental methods are as follows. In a centrifuge tube, 1.5 mL of a 2.5% w/v self-assembling peptide solution was mixed with 1.5 mL of DMEM medium, and after gelation, additional medium was added to make a total volume of […], with a final peptide-to-medium ratio of 1:3. Alternatively, 1.5 mL of a 2.5% self-assembling peptide solution was mixed with 1.5 mL of DMEM medium to achieve a peptide-to-DMEM medium ratio of 1:1. The pH value of each group was then measured.

L929 cells [3] = test: Cell proliferation on pre-formed peptide gel (CCK-8 assay); assay type: cell-based; conditions: gel of 2.5% w/v peptide solution and equal volume of DMEM, about 48 hours, CCK-8, FIGs. 4 and 5
Procedure: To test the biocompatibility of ISAPs, 60 µL of a 2.5% w/v peptide solution was mixed with an equal volume of DMEM medium in a cell culture plate to form a gel. Then, 120 µL of the aforementioned 1×10^5 cells/mL L929 cell suspension was loaded onto the pre-formed gel. […]. […] The cell proliferation assay was performed after culturing the cells in a cell incubator at an atmosphere of 5% CO2 for approximately 48 hours using a CCK-8 assay kit (Beyotime, C0038). For the PRRVDP13 peptide, the cell suspension was directly mixed with the peptide solution, and after the liquid-to-solid phase transition, cells were evenly distributed within the gel. The methods are as follows. 60 µL of the aforementioned L929 cell suspension of 1×10^5 cells/mL and 60 µL of PRRVDP13 peptide were added to a 96-well culture plate. After gelation, 120 µL of culture medium was added for cell culture. After approximately 48 hours of incubation in a cell incubator at an atmosphere of 5% CO2, cells were observed directly using a microscope or observed using a fluorescence microscope following staining with Calcein-AM and PI (Beyotime, C2015S) according to the manufacturer's instructions.

L929 cells [4] = test: 3D cell culture in peptide gel, microscopy and Calcein-AM/PI staining; assay type: cell-based; conditions: L929 cell suspension mixed directly with peptide solution, about 48 hours, FIG. 6
Procedure: One potential application of ISAPs is to use them as scaffolds for supporting 3D cell culture. To validate their suitability as a 3D cell culture scaffold, L929 cells (purchased from the Kunming Cell Bank of the Chinese Academy of Sciences) that had been cultured for 48-72 hours and were in a vigorous growth phase were digested and then mixed with serum-containing DMEM medium for cell counting. The cell suspension was prepared at a concentration of 1×10^5 cells/mL with serum-containing DMEM medium. The cell suspension was mixed with the peptide in a specific ratio (60 µL:60 µL) and added to a 96-well culture plate. After gelation, 120 µL of serum-containing DMEM medium was added for cell culture. In this example, the ISAP solution was mixed with the cell suspension or cell culture medium to study their biocompatibility.
To test the biocompatibility of ISAPs, 60 µL of a 2.5% w/v peptide solution was mixed with an equal volume of DMEM medium in a cell culture plate to form a gel. Then, 120 µL of the aforementioned 1×10^5 cells/mL L929 cell suspension was loaded onto the pre-formed gel. 4 and 5. […] After approximately 48 hours of incubation in a cell incubator at an atmosphere of 5% CO2, cells were observed directly using a microscope or observed using a fluorescence microscope following staining with Calcein-AM and PI (Beyotime, C2015S) according to the manufacturer's instructions.

[5] = Liquid-to-solid phase transition triggered by PBS; assay type: physicochemical; conditions: 2.5% w/v solution, about 1-fold PBS, FIG. 8
Procedure: (§2) The experimental methods are as follows. Peptide was prepared as a 1 mL solution with a concentration of 2.5% w/v. 100 µL of a 10-fold concentration PBS buffer was added and thoroughly mixed to make the final solution as approximately 1-fold PBS to trigger gelation. The gel strength, which is related to hemostatic ability, is usually represented by the storage modulus G'. […]. The experimental methods are as follows. 3 mL of a 2.5% w/v solution of each peptide was prepared using water for injection and then 600 µL of a 5-fold concentration PBS buffer was added in to trigger gel formation. A suitable amount of gel was placed on the rheometer testing stage, with the setting of the stress of the rheometer at 1 Pa, and the scanning frequency range from 0.1 to 10 Hz to measure the storage modulus G' and loss modulus G" of the gel. To measure the viscosity of the peptide solutions, each peptide was prepared into a 2.5% w/v solution using water for injection, and a creep scan was performed using a rheometer at shear rates ranging from 0.001S^-1 to 1000S^-1 to obtain viscosity data for each peptide solution, as shown in FIGs. 7D-7F.

[6] = Rheometer measurement of gel storage modulus G' and loss modulus G"; assay type: physicochemical; conditions: 2.5% w/v gel triggered by PBS, compared to RADA16 and PRVDP9, FIGs. 7A-7C
Procedure: as §2

New Zealand rabbits = test: Liver wound hemostasis model; assay type: in vivo
Excerpt: The animal (New Zealand rabbits) was anesthetized by 2% sodium pentobarbital via ear vein injection. The animal was then fixed in a supine position on the operating table. The abdominal fur was shaved, and the area was sterilized. A standard midline incision was made, and the left lobe of liver was exposed by dissecting the liver. A sterile gauze was placed beneath the liver. A 1.0 cm long and 0.3 cm deep wound was created on the liver lobe, and the wound was wiped with gauze. The test sample (approximately 1 mL) was injected deeply onto the wound until the entire wound area was covered. The hemostatic effect was observed and the hemostasis time was recorded.

[7] = Screening of dissolution and gel formation on mixing with PBS or DMEM; assay type: physicochemical; conditions: 2.5% w/v solution mixed with 10-fold PBS (final about 1-fold) or equal volume of DMEM
Procedure: as §1

State of Peptide Under Different pH Conditions: gel ([1]; concentration 1% w/v) | State of Peptide Under Different pH Conditions: solution ([1]; concentration 1% w/v) | pH needed to stay in solution [1] | neutralization of acidity by mixing with DMEM medium [2] | State of Peptide Under Different pH Conditions: gel ([1]; concentration 2% w/v) | State of Peptide Under Different pH Conditions: solution ([1]; concentration 2% w/v) | pH of the peptide-DMEM mixture ([2]; 2.5% w/v, same volume ratio (1:1 or 1:3), compared with PRVDP9 and RADA16, FIG. 3) | mechanical properties (storage modulus G') [6] | dissolution and gel formation [7] | Compound | cell proliferation on the peptide gel (L929 cells [3]) | cell viability within the gel (L929 cells [4]) | liquid-to-solid phase transition ability [5] | time to complete hemostasis (New Zealand rabbits; 1.25% w/v peptide solution with 1 mg/mL NaHCO3, about 1 mL on rabbit liver wound) [s] | time to complete hemostasis (New Zealand rabbits; 2.5% w/v peptide solution, about 1 mL on rabbit liver wound) [s] | bleeding after rinsing off the hydrogel (New Zealand rabbits; surface hydrogel rinsed off with normal saline after 2 minutes of hemostasis)
pH ≥ 3.50, gel | pH < 3.50, solution | < 3 | relatively more difficult to neutralize |  |  |  |  |  | Ac-PRVDVRVDP-NH2 [PRVDP9, AC-PRVDVRVDP-NH2, reference compound] |  |  |  |  |  | 
pH ≥ 6.29, gel | pH < 6.29, solution |  | easily neutralized | pH ≥ 3.25, gel | pH < 3.25, solution | significantly higher | better mechanical properties |  | Ac-PRVDVRVRVRVDP-NH2 [PRRVDP13, AC-PRVDVRVRVRVDP-NH2] | good proliferation | majority of cells were viable | good liquid-to-solid phase transition ability | ≤ 50 | ≤ 50 | no new bleeding appeared
pH ≥ 3.40, gel | pH < 3.40, solution | < 3 | relatively more difficult to neutralize |  |  |  |  |  | CC(=O)N[C@@H](CCCNC(=N)N)C(=O)N[C@@H](C)C(=O)N[C@@H](CC(=O)O)C(=O)N[C@@H](C)C(=O)N[C@@H](CCCNC(=N)N)C(=O)N[C@@H](C)C(=O)N[C@@H](CC(=O)O)C(=O)N[C@@H](C)C(=O)N[C@@H](CCCNC(=N)N)C(=O)N[C@@H](C)C(=O)N[C@@H](CC(=O)O)C(=O)N[C@@H](C)C(=O)N[C@@H](CCCNC(=N)N)C(=O)N[C@@H](C)C(=O)N[C@@H](CC(=O)O)C(=O)N[C@@H](C)C(N)=O [RADA16, AC-RADARADARADARADA-NH2, reference compound] |  |  |  |  |  | 
pH ≥ 4.05, gel | pH < 4.05, solution |  |  | pH ≥ 3.20, gel | pH < 3.20, solution |  |  | dissolved easily and formed a good gel | Ac-PRVDVRVKVRVDP-NH2 [AC-PRVDVRVKVRVDP-NH2] |  |  |  |  |  | 

Reference: patent EP4610271B1, “SELF-ASSEMBLING POLYPEPTIDE AND USE THEREOF” (Success Bio-Tech Co., Ltd., priority 2023, dated 2026)
